In PMC8151276, “An Integrated Approach toward NanoBRET Tracers for Analysis of GPCR Ligand Engagement” (Molecules, 2021):

Legend:
Type in all cases: binding
CCR7 = target: T1, CCR7 (Homo sapiens, UniProt P32248); experiment: NanoBRET screen HiBiT-CCR7 in HEK293
T1 construct: purchased Promega (in-house HiBiT-GPCR construct library, NanoBRET)
T1 sequence (P32248 25-378): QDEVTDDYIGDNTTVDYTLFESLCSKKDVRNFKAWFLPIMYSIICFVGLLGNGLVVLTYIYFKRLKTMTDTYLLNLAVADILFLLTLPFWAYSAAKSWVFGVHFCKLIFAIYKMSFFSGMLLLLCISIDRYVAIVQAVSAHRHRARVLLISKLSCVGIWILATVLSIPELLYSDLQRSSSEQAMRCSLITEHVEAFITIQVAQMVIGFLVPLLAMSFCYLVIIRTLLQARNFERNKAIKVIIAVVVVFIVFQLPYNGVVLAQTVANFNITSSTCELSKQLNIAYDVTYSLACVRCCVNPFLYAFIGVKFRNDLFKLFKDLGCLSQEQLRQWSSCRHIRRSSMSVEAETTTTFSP
Method: (§1) Each tracer candidate was screened across the entire library of HiBiT-GPCR constructs using NanoBRET as the detection modality. As depicted in Figure 4A, the specificity of interactions was evaluated through decrease in BRET due to competitive displacement of a bound tracer by excess parental compound. Each tracer was analyzed for binding to each HiBiT-GPCR fusion in the absence and in the presence of competing parental compound. Briefly, HEK293 cells were transfected with HiBiT-GPCR constructs diluted into promoterless DNA to reduce expression and maximize translocation to the cell surface. Each tracer candidate was then screened at concentrations of 1 μM and 0.1 μM across cells expressing these fusions. Cells were treated for 1.5 h with tracer either alone or in the presence of 20 μM competing parental compound (i.e., control). BRET was measured upon addition of purified LgBiT and subsequent complementation with HiBiT genetically fused to a GPCR. The specificity of interactions was assessed through a decrease in BRET signal due to competitive displacement of the bound tracer. To further gauge the robustness of these interactions, the fold response over the control (i.e., BRETtracer/BRETcontrol) was calculated. We chose a 1.5-fold response, which translates to ≥7-fold signal over noise as the minimal threshold required to score an interaction as positive. […]. Below we highlight the screening results obtained for our exemplary fluorescent tracers based on Clozapine, Amitriptyline and AZD1283.
(§2) HiBiT-GPCR DNA constructs were diluted in 10 mM Tris pH 8 to a final concentration of 0.01 μg/μL, arrayed in 96-well plates and stored at −20 °C. For transfection, HEK293 cells were suspended in Opti-MEM (without phenol red) supplemented with 2% fetal bovine serum (Seradigm) and 100 units/mL penicillin–streptomycin (Gibco) at a final concentration of 220,000 cells/mL and dispensed into white 96-well plates at 90 μL/well. Subsequent transfections and screens were carried using an Agilent Bravo Automated Liquid Handling Platform. First, the 96-well HiBiT DNA arrays were diluted 25-fold in Opti-MEM (without serum or phenol red) to a final concentration of 0.0004 μg/μL and 20 μL of the diluted DNAs were transferred into new 96-well plates. Next, promoterless carrier DNA (1 μg/μL) was diluted 25-fold (0.04 μg/μL) and then dispensed into the diluted arrays at 20 μL/well. Following brief mixing, Viafect transfection reagent (Promega) diluted 16-fold into Opti-MEM was dispensed into the plates at 40 μL/well. After mixing by pipetting, plates were incubated for 10 min on the pipetting station deck. The DNA-transfection reagent complexes were then added to plates containing cells. To facilitate the screen, 10 μL of DNA-transfection reagent complexes were added in duplicates to the top 4 and bottom 4 rows, resulting in two identical 48-well arrays per plate. Plates with transfected cells were incubated for 18–20 h at 37 °C/5% CO2. A screen of each tracer across the entire library using two different concentrations requires duplicate plates of transfected cells. Depending on the number of tracers being screened, transfections can be scaled up using the same ratios. The next day, for each tracer, four 20× screening solutions in tracer dilution buffer (Promega) were prepared: two duplicates at final concentration of 20 μM and two duplicates at a final concentration of 2 μM. A competing unmodified compound was added to one of each duplicate at a final concentration of 400 μM. The four resulting solutions were diluted 4-fold in Opti-MEM without serum or phenol red to generate 5× solutions (5 µM and 0.5 µM tracer +/− 100 μM competing compound). To screen the library, a BioTek MultiFlo FX liquid dispenser was used to dispense 22.5 µL of tracer solution to the top 4 rows and 22.5 µL tracer + competing compound solution to the 4 bottom rows. Plates were briefly mixed on an orbital shaker and incubated for 1.5 h at room temperature. […]

XCR1 = target: T2, XCR1 (Homo sapiens, UniProt P46094); experiment: NanoBRET screen HiBiT-XCR1 in HEK293
T2 construct: purchased Promega (in-house HiBiT-GPCR construct library, NanoBRET)
T2 sequence (P46094 1-333): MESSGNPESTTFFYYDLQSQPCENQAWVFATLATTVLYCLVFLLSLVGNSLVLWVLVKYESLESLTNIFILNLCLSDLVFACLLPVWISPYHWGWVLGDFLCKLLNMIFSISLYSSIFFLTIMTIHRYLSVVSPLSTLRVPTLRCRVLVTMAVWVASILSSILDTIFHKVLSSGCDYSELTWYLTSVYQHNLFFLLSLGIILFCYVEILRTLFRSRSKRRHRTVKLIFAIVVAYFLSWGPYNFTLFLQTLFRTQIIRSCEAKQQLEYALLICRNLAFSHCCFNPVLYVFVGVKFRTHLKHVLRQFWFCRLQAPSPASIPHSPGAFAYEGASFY
Method: as §1, §2

P2RY13 = target: T3, P2RY13 (Homo sapiens, UniProt Q9BPV8); experiment: NanoBRET screen HiBiT-P2RY13 in HEK293
T3 construct: purchased Promega (in-house HiBiT-GPCR construct library, NanoBRET)
T3 sequence (Q9BPV8 1-354): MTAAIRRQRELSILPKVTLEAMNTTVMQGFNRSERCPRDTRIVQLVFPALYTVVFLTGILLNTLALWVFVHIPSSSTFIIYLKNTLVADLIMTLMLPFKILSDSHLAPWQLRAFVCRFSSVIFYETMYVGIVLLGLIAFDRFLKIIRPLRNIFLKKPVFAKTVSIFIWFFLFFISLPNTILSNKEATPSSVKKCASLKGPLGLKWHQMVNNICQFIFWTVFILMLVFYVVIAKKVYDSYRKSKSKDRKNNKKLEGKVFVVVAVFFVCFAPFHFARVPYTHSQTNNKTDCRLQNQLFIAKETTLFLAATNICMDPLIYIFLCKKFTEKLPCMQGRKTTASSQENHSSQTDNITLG
Method: as §1, §2

| SMILES | NanoBRET Fold Response (CCR7; CCR7, tracer 0.1μM) | NanoBRET Fold Response (CCR7; CCR7, tracer 1μM) | NanoBRET Fold Response (XCR1; XCR1, tracer 0.1μM) | NanoBRET Fold Response (XCR1; XCR1, tracer 1μM) | NanoBRET Fold Response (P2RY13; P2RY13, tracer 0.1μM) | NanoBRET Fold Response (P2RY13; P2RY13, tracer 1μM) | further results |
| --- | --- | --- | --- | --- | --- | --- | --- |
| O=C(CCc1ccc2n1[B-](F)(F)[N+]1=C(c3ccc[nH]3)C=CC1=C2)NCc1ccc(C(=O)NCCOCCC(=O)N[C@@H]2CC[C@@]3(O)[C@H]4Cc5ccc(O)c6c5[C@@]3(CCN4CC3CC3)[C@H]2O6)cc1 [Naltrexone-3-NB590] | 1.07 | 1.05 | 0.97 | 0.61 | 0.62 | 0.92 |  |
| CCCn1c(=O)c2[nH]c(-c3ccc(OCC(=O)NCCNC(=O)CCOCCNC(=O)c4ccc(CNC(=O)CCc5ccc6n5[B-](F)(F)[N+]5=C(c7ccc[nH]7)C=CC5=C6)cc4)cc3)nc2n(CCC)c1=O [XAC-3-NB590] | 0.99 | 1.04 | 0.87 | 0.98 | 1.00 | 1.03 |  |
| CC(C)N(CC[C@H](c1ccccc1)c1cc(CCNC(=O)c2ccc(CNC(=O)CCc3ccc4n3[B-](F)(F)[N+]3=C(c5ccc[nH]5)C=CC3=C4)cc2)ccc1O)C(C)C [Tolterodine-BZ-NB590] | 1.00 | 1.01 | 0.80 | 0.95 | 0.89 | 0.94 |  |
| COc1ccc2[nH]c(-c3ccc(CNC(=O)CCOCCOCCOCCOCCNC(=O)CCc4ccc5n4[B-](F)(F)[N+]4=C(c6ccc[nH]6)C=CC4=C5)cc3)c(CCNC(C)=O)c2n1 [AzomelatoninICO9-2-NB590] |  |  |  |  |  |  | NanoBRET Fold Response (CCR7; 0.1μM tracer): 1.02; NanoBRET Fold Response (CCR7; 1μM tracer): 0.98; NanoBRET Fold Response (XCR1; 0.1μM tracer): 0.42; NanoBRET Fold Response (XCR1; 1μM tracer): 0.90; NanoBRET Fold Response (P2RY13; 0.1μM tracer): 0.87; NanoBRET Fold Response (P2RY13; 1μM tracer): 1.09 |
| CN1CCN(C2=Nc3cc(Cl)ccc3N(CC(=O)NCCOCCOCCOCCOCCNC(=O)CCc3ccc4n3[B-](F)(F)[N+]3=C(c5ccc[nH]5)C=CC3=C4)c3ccccc32)CC1 [Clozapine-c-2-NB590] |  |  |  |  |  |  | NanoBRET Fold Response (CCR7; CCR7, 0.1μM tracer): 0.97; NanoBRET Fold Response (CCR7; CCR7, 1μM tracer): 1.04; NanoBRET Fold Response (XCR1; XCR1, 0.1μM tracer): 0.99; NanoBRET Fold Response (XCR1; XCR1, 1μM tracer): 1.03; NanoBRET Fold Response (P2RY13; P2RY13, 0.1μM tracer): 0.99; NanoBRET Fold Response (P2RY13; P2RY13, 1μM tracer): 0.99 |
| COc1ccccc1N1CCN(CCCCN2C(=O)c3ccc(CNC(=O)CCOCCNC(=O)c4ccc(CNC(=O)CCc5ccc6n5[B-](F)(F)[N+]5=C(c7ccc[nH]7)C=CC5=C6)cc4)cc3C2=O)CC1 [NAN-190-3-NB590] | 1.01 | 1.00 | 1.29 | 1.34 | 1.02 | 0.92 |  |
| Cc1nc2n(c(=O)c1CCN1CCC(c3noc4cc(F)ccc34)CC1)CCCC2OC(=O)NCCOCCOCCOCCOCCNC(=O)CCc1ccc2n1[B-](F)(F)[N+]1=C(c3ccc[nH]3)C=CC1=C2 (stereo not shown) [Risperidone-2-NB590] | 1.00 | 1.04 | 0.97 | 0.88 | 1.03 | 0.90 |  |
| O=C(CCOCCOCCOCCOCCNC(=O)CCc1ccc2n1[B-](F)(F)[N+]1=C(c3ccc[nH]3)C=CC1=C2)NCCCN1CCN(C2=Nc3ccccc3Oc3ccc(Cl)cc32)CC1 [Loxapine-a-2-NB590] | 1.00 | 1.11 | 0.44 | 0.91 | 0.92 | 0.96 |  |
| COc1ccccc1N1CCN(CCCCN2C(=O)c3ccc(CNC(=O)CCOCCOCCOCCOCCNC(=O)CCc4ccc5n4[B-](F)(F)[N+]4=C(c6ccc[nH]6)C=CC4=C5)cc3C2=O)CC1 [NAN-190-2-NB590] | 0.97 | 0.99 | 1.44 |  | 0.97 | 1.04 |  |
| CC(C)N(CC[C@H](c1ccccc1)c1cc(CCNC(=O)CCOCCOCCOCCOCCNC(=O)CCc2ccc3n2[B-](F)(F)[N+]2=C(c4ccc[nH]4)C=CC2=C3)ccc1O)C(C)C [Tolterodine-2-NB590] | 1.26 | 0.88 | 0.81 | 1.17 | 1.26 | 1.28 |  |
| N#CN=C(NCCCOc1cccc(CN2CCCCC2)c1)NCCNC(=O)CCOCCOCCOCCOCCNC(=O)CCc1ccc2n1[B-](F)(F)[N+]1=C(c3ccc[nH]3)C=CC1=C2 [Aminopotentidine-2-NB590] | 0.96 | 1.01 | 1.11 | 0.87 | 0.97 | 1.02 |  |
| CCOC(=O)c1cc(C#N)c(N2CCC(C(=O)NS(=O)(=O)Cc3ccccc3/C=C/C(=O)NCCNC(=O)CCc3ccc4n3[B-](F)(F)[N+]3=C(c5ccc[nH]5)C=CC3=C4)CC2)nc1C [AZD1283-1-NB590] |  |  |  |  |  |  | NanoBRET Fold Response (CCR7; CCR7, 0.1μM): 1.03; NanoBRET Fold Response (CCR7; CCR7, 1μM): 1.01; NanoBRET Fold Response (XCR1; XCR1, 0.1μM): 1.04; NanoBRET Fold Response (XCR1; XCR1, 1μM): 1.00; NanoBRET Fold Response (P2RY13; P2RY13, 0.1μM): 1.93; NanoBRET Fold Response (P2RY13; P2RY13, 1μM): 1.83 |
| CN(CCC=C1c2ccccc2CCc2ccccc21)C(=O)CCOCCOCCOCCOCCNC(=O)CCc1ccc2n1[B-](F)(F)[N+]1=C(c3ccc[nH]3)C=CC1=C2 [Amitriptyline-e-2-NB590] |  |  |  |  |  |  | NanoBRET Fold Response (CCR7; tracer at 1μM): 1.03; NanoBRET Fold Response (XCR1; tracer at 1μM): 0.99 |
